Assay results published in patent US20250296953A1, “3,4-THIAZOLO-STEROIDS AND METHODS OF MAKING AND USING THE SAME” (Arkansas State University - Jonesboro, priority 2018, published 2025).
Read-outs that look alike come from different tables or passages of the source.

How the values were obtained:
[1] = system: SF-539; experiment: NCI 60 one dose screen; format: cell-based, human; details: one dose; CNS Cancer; SF-539
[2] = system: NCI-H522 (NSCLC); experiment: NCI 60 one dose screen; format: cell-based, human; details: Non-small Cell Lung Cancer
[3] = system: 60 different human tumor cell lines; details: five dose
[4] = system: SF-295; experiment: NCI 60 one dose screen; format: cell-based, human; details: one dose; CNS Cancer; SF-295
[5] = system: glioblastoma (SF-295); experiment: NCI 60 five dose screen
[6] = system: 60 different human tumor cell lines; experiment: NCI Development Therapeutics Program 60 cell line screen, one dose; format: cell-based
[7] = system: RPMI-8226; experiment: NCI 60 five dose screen
[8] = system: SR; experiment: NCI 60 five dose screen

## C[C@]12CC[C@H]3[C@@H](CC=C4c5sc(Nc6ccccc6)nc5CC[C@@]43C)[C@@H]1CC[C@@H]2O [IIIa.10, (1S,2R,13R,14S,17S,18S)-7-anilino-2,18-dimethyl-8-thia-6-azapentacyclo[11.7.0.02,10.05,9.014,18]icosa-5(9),6,10-trien-17-ol]
[1]
  Growth Percent: −34.31%
[2]
  Growth Percent: 25.77%
[3]; 786-0 (Renal Cancer)
  TGI: 3.30E−6
[3]; A498 (Renal Cancer)
  TGI: 5.66E−6
[3]; A549/ATCC (Non-small Cell Lung Cancer)
  TGI: 6.02E−6
[3]; ACHN (Renal Cancer)
  TGI: 3.25E−6
[3]; BT-549 (Breast Cancer)
  TGI: 4.31E−6
[3]; CAKI-1 (Renal Cancer)
  TGI: 5.68E−6
[3]; CCRF-CEM (Leukemia)
  TGI: 2.71E−5
[3]; COLO 205 (Colon Cancer)
  TGI: 5.61E−6
[3]; DU-145 (Prostate Cancer)
  TGI: 3.62E−6
[3]; EKVX (Non-small Cell Lung Cancer)
  TGI: 9.26E−6
[3]; HCC-2998 (Colon Cancer)
  TGI: 3.56E−6
[3]; HCT-15 (Colon Cancer)
  TGI: 5.15E−6
[3]; HCT-116 (Colon Cancer)
  TGI: 3.01E−6
[3]; HL-60(TB) (Leukemia)
  TGI: 6.87E−6
[3]; HOP-62 (Non-small Cell Lung Cancer)
  TGI: 6.54E−6
[3]; HOP-92 (Non-small Cell Lung Cancer)
  TGI: 6.77E−6
[3]; HS 578T (Breast Cancer)
  TGI: 1.72E−5
[3]; HT29 (Colon Cancer)
  TGI: 4.45E−6
[3]; IGROV1 (Ovarian Cancer)
  TGI: 7.85E−6
[3]; K-562 (Leukemia)
  TGI: 1.26E−5
[3]; KM12 (Colon Cancer)
  TGI: 3.12E−6
[3]; LOX IMVI (Melanoma)
  TGI: 2.77E−6
[3]; M14 (Melanoma)
  TGI: 4.27E−6
[3]; MALME-3M (Melanoma)
  TGI: 5.89E−6
[3]; MCF7 (Breast Cancer)
  TGI: 4.73E−6
[3]; MDA-MB-231/ATCC (Breast Cancer)
  TGI: 4.63E−6
[3]; MDA-MB-435 (Melanoma)
  TGI: 7.03E−6
[3]; MDA-MB-468 (Breast Cancer)
  TGI: 3.38E−6
[3]; MOLT-4 (Leukemia)
  TGI: 8.07E−6
[3]; NCI-H23 (Non-small Cell Lung Cancer)
  TGI: 5.04E−6
[3]; NCI-H226 (Non-small Cell Lung Cancer)
  TGI: 5.57E−6
[3]; NCI-H322M (Non-small Cell Lung Cancer)
  TGI: 1.11E−5
[3]; NCI-H460 (Non-small Cell Lung Cancer)
  TGI: 4.04E−6
[3]; NCI-H522 (Non-small Cell Lung Cancer)
  TGI: 4.50E−6
[3]; NCI/ADR-RES (Ovarian Cancer)
  TGI: 9.17E−5
[3]; OVCAR-3 (Ovarian Cancer)
  TGI: 2.62E−6
[3]; OVCAR-4 (Ovarian Cancer)
  TGI: 1.54E−5
[3]; OVCAR-5 (Ovarian Cancer)
  TGI: 7.86E−6
[3]; OVCAR-8 (Ovarian Cancer)
  TGI: 1.49E−5
[3]; PC-3 (Prostate Cancer)
  TGI: 5.84E−6
[3]; RXF 393 (Renal Cancer)
  TGI: 2.28E−6
[3]; SF-268 (CNS Cancer)
  TGI: 3.32E−6
[3]; SK-MEL-2 (Melanoma)
  TGI: 5.64E−6
[3]; SK-MEL-5 (Melanoma)
  TGI: 3.41E−6
[3]; SK-MEL-28 (Melanoma)
  TGI: 3.99E−6
[3]; SK-OV-3 (Ovarian Cancer)
  TGI: 1.79E−5
[3]; SN12C (Renal Cancer)
  TGI: 3.28E−6
[3]; SNB-19 (CNS Cancer)
  TGI: 3.77E−6
[3]; SNB-75 (CNS Cancer)
  TGI: 3.05E−6
[3]; SW-620 (Colon Cancer)
  TGI: 5.36E−6
[3]; TK-10 (Renal Cancer)
  TGI: 6.63E−6
[3]; U251 (CNS Cancer)
  TGI: 2.79E−6
[3]; UACC-62 (Melanoma)
  TGI: 3.96E−6
[3]; UACC-257 (Melanoma)
  TGI: 6.68E−6
[3]; UO-31 (Renal Cancer)
  TGI: 3.05E−6
[4]
  Growth Percent: 7.36%
[5]; Homo sapiens, SF-295
  GI50: 1.06 µM
[5]; Homo sapiens, SF-295, read-out: LC50
  CC50: 8.38 µM
[5]; SF-295 (CNS Cancer), five dose
  TGI: 2.98E−6
[6]; Breast Cancer, BT-549
  Growth Percent: 19.16%
[6]; Breast Cancer, HS 578T
  Growth Percent: 3.65%
[6]; Breast Cancer, MCF7
  Growth Percent: 29.18%
[6]; Breast Cancer, MDA-MB-231/ATCC
  Growth Percent: 35.75%
[6]; Breast Cancer, MDA-MB-468
  Growth Percent: −1.00%
[6]; Breast Cancer, T-47D
  Growth Percent: 16.35%
[6]; CNS Cancer, SF-268
  Growth Percent: 9.68%
[6]; CNS Cancer, SNB-19
  Growth Percent: 26.54%
[6]; CNS Cancer, SNB-75
  Growth Percent: −5.43%
[6]; CNS Cancer, U251
  Growth Percent: −30.05%
[6]; Colon Cancer, COLO 205
  Growth Percent: 57.13%
[6]; Colon Cancer, HCC-2998
  Growth Percent: 98.16%
[6]; Colon Cancer, HCT-116
  Growth Percent: −81.48%
[6]; Colon Cancer, HT29
  Growth Percent: −38.50%
[6]; Colon Cancer, KM12
  Growth Percent: 15.64%
[6]; Colon Cancer, SW-620
  Growth Percent: −19.44%
[6]; Leukemia, CCRF-CEM
  Growth Percent: 0.74%
[6]; Leukemia, HL-60(TB)
  Growth Percent: 15.69%
[6]; Leukemia, K-562
  Growth Percent: 4.96%
[6]; Leukemia, MOLT-4
  Growth Percent: 6.79%
[6]; Leukemia, RPMI-8226
  Growth Percent: −32.33%
[6]; Leukemia, SR
  Growth Percent: 8.06%
[6]; Melanoma, LOX IMVI
  Growth Percent: −81.48%
[6]; Melanoma, M14
  Growth Percent: 53.44%
[6]; Melanoma, MALME-3M
  Growth Percent: 71.16%
[6]; Melanoma, MDA-MB-435
  Growth Percent: 3.47%
[6]; Melanoma, SK-MEL-2
  Growth Percent: 51.68%
[6]; Melanoma, SK-MEL-5
  Growth Percent: 34.54%
[6]; Melanoma, SK-MEL-28
  Growth Percent: 27.28%
[6]; Melanoma, UACC-62
  Growth Percent: 39.84%
[6]; Melanoma, UACC-257
  Growth Percent: 69.33%
[6]; Non-small Cell Lung Cancer, A549/ATCC
  Growth Percent: 57.08%
[6]; Non-small Cell Lung Cancer, EKVX
  Growth Percent: 73.21%
[6]; Non-small Cell Lung Cancer, HOP-62
  Growth Percent: 34.18%
[6]; Non-small Cell Lung Cancer, HOP-92
  Growth Percent: 103.92%
[6]; Non-small Cell Lung Cancer, NCI-H23
  Growth Percent: 67.34%
[6]; Non-small Cell Lung Cancer, NCI-H226
  Growth Percent: 63.92%
[6]; Non-small Cell Lung Cancer, NCI-H322M
  Growth Percent: 78.38%
[6]; Non-small Cell Lung Cancer, NCI-H460
  Growth Percent: 6.06%
[6]; Ovarian Cancer, IGROV1
  Growth Percent: 11.15%
[6]; Ovarian Cancer, NCI/ADR-RES
  Growth Percent: 36.29%
[6]; Ovarian Cancer, OVCAR-3
  Growth Percent: −31.62%
[6]; Ovarian Cancer, OVCAR-4
  Growth Percent: 64.10%
[6]; Ovarian Cancer, OVCAR-5
  Growth Percent: 92.21%
[6]; Ovarian Cancer, OVCAR-8
  Growth Percent: −8.95%
[6]; Ovarian Cancer, SK-OV-3
  Growth Percent: 89.65%
[6]; Prostate Cancer, DU-145
  Growth Percent: 14.25%
[6]; Prostate Cancer, PC-3
  Growth Percent: 39.21%
[6]; Renal Cancer, 786-0
  Growth Percent: −49.68%
[6]; Renal Cancer, ACHN
  Growth Percent: 36.78%
[6]; Renal Cancer, CAKI-1
  Growth Percent: 49.02%
[6]; Renal Cancer, RXF 393
  Growth Percent: −32.33%
[6]; Renal Cancer, SN12C
  Growth Percent: 10.11%
[6]; Renal Cancer, TK-10
  Growth Percent: 65.01%
[6]; Renal Cancer, UO-31
  Growth Percent: 26.06%
[7]; Homo sapiens, RPMI-8226
  GI50: 0.465 µM
[7]; Homo sapiens, RPMI-8226, read-out: LC50
  CC50: > 100 µM
[7]; RPMI-8226 (Leukemia), five dose
  TGI: 2.47E−6
[8]; Homo sapiens, SR
  GI50: 0.241 µM
[8]; Homo sapiens, SR, read-out: LC50
  CC50: > 100 µM
[8]; SR (Leukemia), five dose
  TGI: 6.10E−6
